The results in this text go back to patent publication US20230295140A1, “INHIBITORS OF VAP-1” (Acucela Inc., priority 2021, published 2023).

In general, IC50 refers to the concentration that inhibits the measured activity by half.

Counter-ions that a name gives are not always drawn.

What all share (assay type): biochemical
The target in one assay is rhMAO-A (Homo sapiens (Human), UniProt P21397). In words: MAO-Glo assay, MAO-A inhibition. On the procedure:
(§1) The capability of compounds described herein to inhibit MAO was determined using a modified Promega MAO-Glo™ assay kit. The substrate ((4S)-4,5-dihydro-2-(6-hydroxybenzothiazolyl)-4-thiazolecarboxylic acid) was converted by MAO to produce methyl ester luciferin. The luciferin was then converted by luciferase to produce oxyluciferin and light. The light was measured using a luminescence setting on the plate reader. A standard curve was prepared by serially diluting luciferin in reaction buffer. The standard kit reaction buffer was used—100 mM HEPES (pH 7.5), 5% glycerol. The substrate was dispensed into the wells so that the final concentration for MAO-A inhibition assay would be 10 μM and MAO-B inhibition assay would be […]. Inhibitors were diluted in DMSO to 4× and distributed to the appropriate wells. Clorgyline and Deprenyl served as positive controls. rhMAO-A and rhMAO-B were purchased from Sigma. MAO-A or MAO-B was added to the appropriate wells. The plate was incubated for 1 hour, at room temperature with gentle shaking (90 rpm). The detection agent was added at equal volume (48 μL detection agent to 48 μL reaction). The plate was incubated for 20 minutes, at room temperature with gentle shaking (90 rpm). The plate luminescence was read. Data processing was performed using Prism software.
(§2) The capability of compounds described herein to inhibit MAO was determined using a modified Promega MAO-Glo™ assay. Test compounds, substrate and enzyme were incubated per manufacturer instructions for 1 hour, at room temperature with gentle shaking (90 rpm) before addition of detection agent. The detection agent was added at equal volume (48 μL detection agent to 48 μL reaction). The plate was incubated for 20 minutes, at room temperature with gentle shaking (90 rpm). The plate luminescence was read. Data processing was performed using Prism software.

A further assay deals with rhMAO-B (Homo sapiens (Human), UniProt P27338). In words: MAO-Glo assay, MAO-B inhibition. The protocol: as §1, §2
A further assay concerns the target rhVAP-1 (Homo sapiens (Human), UniProt Q16853). The assay is described as follows: VAP-1 fluorometric assay (Amplex Red/HRP, benzylamine substrate). The following applies: class symbols, ranges defined in μM. On the procedure: The capability of compounds described herein to inhibit the enzymatic activity of vascular adhesion protein-1 (VAP-1) was determined by fluorometric assay. The assay procedure provided by R&D Systems was modified slightly for use as an inhibitor screening assay. The assay measured the H2O2 generated from the oxidative deamination of benzylamine by rhVAP-1 by converting Amplex® Red to the fluorescent product, resorufin, via horseradish peroxidase (HRP) and H2O2. Reaction buffer was 10 mM NaHCO3, pH 7.4. A standard curve was prepared by serially diluting H2O2 in reaction buffer. A 10 μM solution of resorufin was prepared in reaction buffer and was dispensed to 2 wells. These wells served as positive control for maximum fluorescence. Reaction buffer was added to the individual wells so that the final volume in each well was 100 μL. Amplex Red was diluted to 1 mM in reaction buffer. A 10 U stock of HRP was prepared in reaction buffer. A reaction cocktail was prepared by mixing equal parts 1 mM Amplex Red with 10 U HRP with 3 parts reaction buffers. The reaction cocktail was added to the appropriate wells, so that that final concentration in the well was 0.05 mM Amplex Red and 0.5 U HRP. A 200 μM solution of benzylamine was prepared in reaction buffer. Benzylamine was added to the appropriate wells so that the final concentration was 50 μM. Inhibitors were diluted in DMSO to 20× and distributed to the appropriate wells. LJP-1207 served a positive control. rhVAP-1 was purchased from R&D Systems. The concentration used for each lot was determined so that the activity was equal to the first lot. Two wells were left blank as controls. The plate was incubated for 30 minutes at 37° C., protected from light under foil. The plate was read at 530/35 emission and 590/35 excitation. Data processing was performed using Excel and Prism software.
The capability of compounds described herein to inhibit the enzymatic activity of vascular adhesion protein-1 (VAP-1) was determined by fluorometric assay. The assay procedure provided by R&D Systems was modified slightly for use as an inhibitor screening assay. The assay measured the H2O2 generated from the oxidative deamination of benzylamine by rhVAP-1 by converting Amplex® Red to the fluorescent product, resorufin, via horseradish peroxidase (HRP) and H2O2. Amplex Red, HRP, Benzylamine, inhibitors (with DMSO as vehicle, 0.5% v/v) and rhVAP-1 were added to the wells. Assay was conducted in 10 mM NaHCO3, pH 7.4. A standard curve was prepared by serially diluting H2O2 in reaction buffer. The plate was incubated for 30 minutes at 37° C., protected from light under foil. The plate was read at 530/35 emission and 590/35 excitation. Data processing was performed using Prism software.

[1] abbreviates: class symbols, ranges defined in μM.

Chain of rhVAP-1 (Q16853 whole entry): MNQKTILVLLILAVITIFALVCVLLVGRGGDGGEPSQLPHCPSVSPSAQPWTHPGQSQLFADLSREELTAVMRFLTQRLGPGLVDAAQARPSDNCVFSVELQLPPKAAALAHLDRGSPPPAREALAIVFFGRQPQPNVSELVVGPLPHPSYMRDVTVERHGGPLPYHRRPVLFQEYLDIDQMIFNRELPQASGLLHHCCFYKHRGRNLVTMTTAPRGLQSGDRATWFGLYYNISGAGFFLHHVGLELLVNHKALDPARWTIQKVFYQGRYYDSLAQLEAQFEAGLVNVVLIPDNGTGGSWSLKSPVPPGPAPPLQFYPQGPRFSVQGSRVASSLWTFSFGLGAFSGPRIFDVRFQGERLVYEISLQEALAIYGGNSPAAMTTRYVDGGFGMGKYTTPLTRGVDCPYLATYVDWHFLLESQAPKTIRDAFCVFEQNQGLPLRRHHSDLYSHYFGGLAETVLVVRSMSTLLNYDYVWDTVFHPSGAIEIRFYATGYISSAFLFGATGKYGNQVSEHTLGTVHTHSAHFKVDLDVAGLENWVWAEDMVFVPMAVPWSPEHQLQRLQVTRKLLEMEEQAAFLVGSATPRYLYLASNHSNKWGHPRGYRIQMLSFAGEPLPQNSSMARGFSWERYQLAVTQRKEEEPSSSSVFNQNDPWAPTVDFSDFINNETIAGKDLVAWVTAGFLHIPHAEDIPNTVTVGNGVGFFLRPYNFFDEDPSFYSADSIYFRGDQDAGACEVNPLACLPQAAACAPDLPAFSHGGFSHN
Chain of rhMAO-A (P21397 whole entry): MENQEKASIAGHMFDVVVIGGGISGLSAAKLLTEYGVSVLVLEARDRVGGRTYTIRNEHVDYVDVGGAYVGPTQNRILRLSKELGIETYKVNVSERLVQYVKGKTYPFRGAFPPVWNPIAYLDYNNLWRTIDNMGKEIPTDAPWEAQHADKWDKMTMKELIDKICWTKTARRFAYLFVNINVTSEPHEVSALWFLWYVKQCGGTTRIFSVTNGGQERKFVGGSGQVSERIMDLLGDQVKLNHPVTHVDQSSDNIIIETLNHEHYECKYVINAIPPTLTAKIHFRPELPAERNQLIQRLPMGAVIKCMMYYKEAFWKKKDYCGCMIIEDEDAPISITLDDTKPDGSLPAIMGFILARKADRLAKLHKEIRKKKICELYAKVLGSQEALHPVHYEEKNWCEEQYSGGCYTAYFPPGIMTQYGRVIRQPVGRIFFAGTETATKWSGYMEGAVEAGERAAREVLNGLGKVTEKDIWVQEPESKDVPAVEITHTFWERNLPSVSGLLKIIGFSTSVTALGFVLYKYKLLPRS
Chain of rhMAO-B (P27338 whole entry): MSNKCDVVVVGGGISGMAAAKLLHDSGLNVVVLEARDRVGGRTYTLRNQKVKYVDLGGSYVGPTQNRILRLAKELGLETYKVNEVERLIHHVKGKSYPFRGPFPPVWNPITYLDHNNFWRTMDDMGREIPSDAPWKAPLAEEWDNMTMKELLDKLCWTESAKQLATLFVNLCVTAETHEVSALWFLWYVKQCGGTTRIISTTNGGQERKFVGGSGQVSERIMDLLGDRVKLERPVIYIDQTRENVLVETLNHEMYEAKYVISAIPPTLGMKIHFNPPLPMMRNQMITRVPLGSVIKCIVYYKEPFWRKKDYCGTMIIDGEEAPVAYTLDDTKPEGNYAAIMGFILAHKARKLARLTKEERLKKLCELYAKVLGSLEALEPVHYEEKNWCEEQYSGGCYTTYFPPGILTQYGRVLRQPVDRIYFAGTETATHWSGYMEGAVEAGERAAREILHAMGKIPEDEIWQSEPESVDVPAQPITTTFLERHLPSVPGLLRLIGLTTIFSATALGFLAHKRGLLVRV

For the molecule `NC/C(=C/F)COc1ccc2nc(NCc3ccc(N4CCCC4=O)cc3)oc2c1` [Example 57, (Z)-1-(4-(((6-((2-(aminomethyl)-3-fluoroallyl)oxy)benzo[d]oxazol-2-yl)amino)methyl)phenyl)pyrrolidin-2-one 4-methylbenzenesulfonate], the figures for the IC50 against rhMAO-A (setting [1]), against rhMAO-B (bound printed in cell) and against rhVAP-1 were 1 to 10 µM, more than 40 µM and 1 to 10 µM, respectively.

As to `COc1cccc(CNc2nc3ccc(OC/C(=C/F)CN)cc3o2)c1` [Example 25, (E)-6-((2-(aminomethyl)-3-fluoroallyl)oxy)-N-(3-methoxybenzyl)benzo[d]oxazol-2-amine 4-methylbenzenesulfonate], the IC50 is 1 to 10 µM on rhMAO-A (setting [1]), 0.1 to 1 µM against rhMAO-B (setting [1]) and less than 0.1 µM at rhVAP-1.

For the molecule `CCCCc1nc2cc(OC/C(=C/F)CN)ccc2n1C` [Example 11, (E)-2-(((2-butyl-1-methyl-1H-benzo[d]imidazol-5-yl)oxy)methyl)-3-fluoroprop-2-en-1-amine], the half-maximal inhibitory concentration (IC50) at rhMAO-A (bound printed in cell) was more than 50 µM; on rhMAO-B (bound printed in cell), more than 50 µM; at rhVAP-1 it was less than 0.1 µM.

On to `NC/C(=C\F)COc1ccc2nc(C34CCC(CC3)CC4)oc2c1` [Example 34, (E)-2-(((2-(bicyclo[2.2.2]octan-1-yl)benzo[d]oxazol-6-yl)oxy)methyl)-3-fluoroprop-2-en-1-amine 4-methylbenzenesulfonate], for which the values for the IC50 against rhMAO-A (setting [1]), against rhMAO-B (setting [1]) and at rhVAP-1 were 10 to 30 µM, 0.1 to 1 µM and less than 0.1 µM, respectively.

As for `CCCCc1nc2c(F)cc(OC/C(=C/F)CN)cc2o1` [Example 82, (E)-2-(((2-butyl-4-fluorobenzo[d]-oxazol-6-yl)oxy)methyl)-3-fluoroprop-2-en-1-amine 4-methylbenzenesulfonate], the IC50 at rhMAO-A (setting [1]) is 1 to 10 µM; against rhMAO-B (setting [1]) it was less than 0.1 µM; against rhVAP-1, less than 0.1 µM.

Regarding `Cc1cc(CNc2nc3ccc(OC/C(=C\F)CN)cc3o2)cc(C)n1` [Example 60, (Z)-6-((2-(aminomethyl)-3-fluoroallyl)oxy)-N-((2,6-dimethylpyridin-4-yl)methyl)benzo[d]oxazol-2-amine bis(4-methylbenzenesulfonate)], the IC50 is more than 50 µM at rhMAO-A (bound printed in cell), 1 to 10 µM against rhMAO-B (setting [1]) and less than 0.1 µM against rhVAP-1.

Consider `CC1CN(c2nc3ccc(OC/C(=C/F)CN)cc3o2)C(C)(C)C1` (stereo not drawn) [Example 86, (E)-3-fluoro-2-(((2-(2,2,4-trimethylpyrrolidin-1-yl)benzo[d]oxazol-6-yl)oxy)methyl)prop-2-en-1-amine 4-methylbenzenesulfonate], for which the results for the half-maximal inhibitory concentration (IC50) on rhMAO-A (bound printed in cell), against rhMAO-B (setting [1]) and on rhVAP-1 were more than 50 µM, 1 to 10 µM and less than 0.1 µM, respectively.

As for `CNC(=O)CN(C)c1nc2ccc(OC/C(=C\F)CN)cc2o1` [Example 72, (Z)-2-((6-((2-(aminomethyl)-3-fluoroallyl)oxy)benzo[d]oxazol-2-yl)(methyl)amino)-N-methylacetamide 4-methylbenzenesulfonate], the IC50 is more than 50 µM against rhMAO-A (bound printed in cell), more than 50 µM on rhMAO-B (bound printed in cell) and less than 0.1 µM against rhVAP-1.

In the case of `NC/C(=C\F)COc1ccc2nc(C3CCCC3)oc2c1` [Example 37, (E)-2-(((2-cyclopentylbenzo[d]oxazol-6-yl)oxy)methyl)-3-fluoroprop-2-en-1-amine 4-methylbenzenesulfonate], the values for the IC50 at rhMAO-A (setting [1]), on rhMAO-B (setting [1]) and against rhVAP-1 were 1 to 10 µM, 0.1 to 1 µM and less than 0.1 µM, respectively.

Regarding `CCCCc1nc2ccc(OC/C(=C/F)CN)c(C)c2o1` [Example 10, (E)-2-(((2-butyl-7-methylbenzo[d]oxazol-6-yl)oxy)methyl)-3-fluoroprop-2-en-1-amine], the IC50 was 1 to 10 µM at rhMAO-A (setting [1]), less than 0.1 µM against rhMAO-B (setting [1]) and 0.1 to 1 µM against rhVAP-1.

Regarding `CCCCc1nc2ccc(OC/C(=C\F)CN)c(F)c2s1` [Example 15, (Z)-2-(((2-butyl-7-fluorobenzo[d]thiazol-6-yl)oxy)methyl)-3-fluoroprop-2-en-1-amine 4-methylbenzenesulfonate], the IC50 against rhMAO-B (setting [1]) and against rhVAP-1 was less than 0.1 µM throughout.

In the case of `CNC(=O)[C@@H](Cc1ccccc1)Nc1nc2ccc(OC/C(=C\F)CN)cc2o1` [Example 80, (R,Z)-2-((6-((2-(aminomethyl)-3-fluoroallyl)oxy)benzo[d]oxazol-2-yl)amino)-N-methyl-3-phenylpropanamide 4-methylbenzenesulfonate], the half-maximal inhibitory concentration (IC50) against rhMAO-A (bound printed in cell) was more than 40 µM; on rhMAO-B (bound printed in cell), more than 40 µM; against rhVAP-1, less than 0.1 µM.

`NC/C(=C\F)COc1ccc2nc(C3CCC(c4ccccc4)CC3)oc2c1` (stereo not drawn) [Example 41, (E)-3-fluoro-2-(((2-(4-phenylcyclohexyl)benzo[d]oxazol-6-yl)oxy)methyl)prop-2-en-1-amine 4-methylbenzenesulfonate]: the half-inhibitory concentration (IC50) against rhMAO-A (setting [1]) was 10 to 30 µM; against rhMAO-B (setting [1]) it was 0.1 to 1 µM; against rhVAP-1, less than 0.1 µM.

As for `CCCCc1nc2ccc(OC/C(=C/F)CN)cc2o1` [Example 1, (E)-2-(((2-butylbenzo[d]oxazol-6-yl)oxy)methyl)-3-fluoroprop-2-en-1-amine 4-methylbenzenesulfonate], the IC50 against rhMAO-A (setting [1]), on rhMAO-B (setting [1]) and against rhVAP-1 was less than 0.1 µM each time.

As for `CCCCc1nc2ccc(CCC(=CF)CN)cc2o1` [Example 52, 4-(2-butylbenzo[d]oxazol-6-yl)-2-(fluoromethylene)butan-1-amine 4-methylbenzenesulfonate], at rhVAP-1, the half-maximal inhibitory concentration (IC50) is less than 0.1 µM.

As to `COc1ncccc1CNc1nc2ccc(OC/C(=C\F)CN)cc2o1` [Example 75, (Z)-6-((2-(aminomethyl)-3-fluoroallyl)oxy)-N-((2-methoxypyridin-3-yl)methyl)benzo[d]oxazol-2-amine 4-methylbenzenesulfonate], the half-inhibitory concentration (IC50) on rhMAO-A (bound printed in cell) is more than 50 µM; against rhMAO-B (setting [1]) it was 0.1 to 1 µM; against rhVAP-1, less than 0.1 µM.

Regarding `CCCNc1nc2ccc(OC/C(=C\F)CN)cc2s1` [Example 12, (Z)-6-((2-(aminomethyl)-3-fluoroallyl)oxy)-N-propylbenzo[d]thiazol-2-amine 4-methylbenzenesulfonate], the figures for the half-maximal inhibitory concentration (IC50) against rhMAO-A (setting [1]), against rhMAO-B (setting [1]) and against rhVAP-1 were 1 to 10 µM, 1 to 10 µM and less than 0.1 µM, respectively.

As to `CNC(=O)[C@H](Cc1ccccc1)Nc1nc2ccc(OC/C(=C\F)CN)cc2o1` [Example 71, (S,Z)-2-((6-((2-(aminomethyl)-3-fluoroallyl)oxy)benzo[d]oxazol-2-yl)amino)-N-methyl-3-phenylpropanamide 4-methylbenzenesulfonate], the IC50 on rhMAO-A (bound printed in cell) was more than 50 µM; against rhMAO-B (setting [1]), 1 to 10 µM; at rhVAP-1, less than 0.1 µM.

Take `C=C(CN)C(F)(F)Oc1ccc2nc(CCCC)oc2c1` [Example 29, 2-(((2-butylbenzo[d]oxazol-6-yl)oxy)difluoromethyl)prop-2-en-1-amine hydrochloride]: at rhVAP-1, the half-inhibitory concentration (IC50) was in the range of 0.1 to 1 µM.

In the case of `CCCCc1nc2ccc(OC/C(F)=C\CN)cc2o1` [Example 16, (E)-4-((2-butylbenzo[d]oxazol-6-yl)oxy)-3-fluorobut-2-en-1-amine], the IC50 against rhVAP-1 is 0.1 to 1 µM.

As to `CCCCc1nc2ccc(/C=C(/F)CN)cc2o1` [Example 95, (E)-3-(2-butylbenzo[d]oxazol-6-yl)-2-fluoroprop-2-en-1-amine], on rhVAP-1, the 50% inhibitory concentration (IC50) lay in the range of 0.1 to 1 µM.
